49 molecules from PubChem BioAssay (NCI) can be followed below.

The subject of the test is MDA-MB-468 breast. Nature of the test: growth of human tumour cells (NCI), 48 h.

Values joined by “and” are separate entries in the source; they are usually repeats but may differ in a detail not shown here. Equal values may be shown once.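 Cultured in 96-well plates, cells were exposed to test compound for 48 hours across five concentrations. Here, GI50 denotes the concentration required for 50% inhibition of growth. TGI: concentration producing complete growth inhibition.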 A value given as a limit tells only on which side of the number the result lay.

For the molecule `CC(C)(C)c1nc2c(o1)C(=Nc1ccc(F)cc1)c1ccccc1C2=O`, the GI50 was 5.84 µM and the TGI was above 100 µM. For `CCOC(=O)[C@@H](C)C[C@H](Cc1ccccc1)NC(=O)c1csc([C@@H](C[C@H](C(C)C)N(C)C(=O)[C@@H](NC(=O)[C@H]2CCCCN2C)C(C)(C)C)OC(C)=O)n1`, in that order: below 0.00167 µM and 0.0752 µM. For `Cc1ccc(-c2nc(C(Cl)Cl)n3nc(-c4ccccc4)cc3n2)cc1`, in that order: 0.239 µM and 0.612 µM. For `CCCNCc1cc(C)cc2c1nc(N1CCNCC1)n2Cc1cc(C)c(F)c(C)c1`, in that order: 1.88 µM and 3.71 µM. Consider `O=c1cc(-c2ccccc2F)[nH]c2cc3c(cc12)OCO3`, for which the GI50 is 6.39 µM and the TGI is above 100 µM.

`CNC(=O)c1cn(C[C@H](F)CCc2ccc(NC(=O)Cc3cc(OC4CC(F)(F)C4)cc(C)n3)nn2)nn1`: the GI50 was above 100 µM and the TGI was above 100 µM. Take `CNC(=O)c1cc(Oc2ccc(NC(=O)Nc3ccc(Cl)c(OC(F)(F)F)c3)c(F)c2)ccn1`: the GI50 is 1.02 µM and the TGI was 4.77 µM.

On to `COc1ccc2c(c1)C=CC(C#N)N2C(=O)c1ccccc1` (configuration not stated), for which the GI50 was below 0.01 µM and the TGI was above 100 µM. Turning to `C=CC(=O)Nc1cccc(Nc2nc(Nc3ccc(OCCOC)cc3)ncc2F)c1`, the GI50 was 0.976 µM and the TGI was found to be 3.89 µM. For `COc1cc(-c2cn(C)c(=O)c(C)c2C)cc(OC)c1CN1CC[C@H](N2CCN(c3ccc(N[C@H]4CCC(=O)NC4=O)cc3F)CC2)C(F)(F)C1`, in that order: 7.26 µM and 22.3 µM. In the case of `CCN(Cc1c(F)cccc1F)c1ccc(CO)c(Cl)c1`, the GI50 was 0.0148 µM and the TGI stood at 0.033 µM. Taken in the same sequence, the figures for `C=C(C)[C@@H]1CC[C@@]2(C(=O)O)CC[C@]3(C)C(CCC4[C@@]5(C)CCC(OS(=O)(=O)c6ccccc6)C(C)(C)C5CC[C@]43C)C12` (some centres not stated) were 2.76 µM and 22.6 µM. For `CCNCCOc1ccc(/C(=C(/CC)c2ccc(Cl)cc2)c2ccc(OCCCN(C)C)cc2)cc1`, in that order: 1.52 µM and 5.35 µM. As for `C=CCOc1c(Br)cc(Br)cc1Br`, the GI50 was 26.4 µM and the TGI was above 100 µM. For the molecule `CC(=O)O[C@H]1C(=O)[C@@]2(C)[C@H]([C@H](OC(=O)c3ccccc3)[C@]3([O-])C[C@H](OC(=O)[C@H]([O-])[C@@H](NC(=O)c4ccccc4)c4ccccc4)C(C)=C1C3(C)C)[C@]1(OC(C)=O)CO[C@@H]1C[C@@H]2[O-].[Fe+3]`, the GI50 was 0.0351 µM and 0.0363 µM.

Turning to `CNC(=O)c1ccc(-c2cnc3ncc(Cc4ccc5ncccc5c4)n3n2)cc1F`, the GI50 was 92.3 µM and the TGI is above 100 µM.

Take `CC(=O)n1c(-c2ccc(Cl)cc2)nc2c(c1=O)C(c1ccc(Cl)cc1)c1sc3c(Cl)cccc3c1O2` (configuration not stated): the GI50 was 0.225 µM and the TGI was 0.56 µM. For `COc1ccc(/C=N/NC(=O)c2[nH]c3ccc(Br)cc3c2-c2ccccc2)s1`, in that order: 0.0586 µM and 3.78 µM. In the case of `FC(F)(F)c1ccc2c(Nc3cccc(C4CC(c5ccccc5)=NN4c4ccc(Cl)cc4)c3)ccnc2c1` (configuration not stated), the GI50 was 3.02 µM and the TGI was 16.6 µM. Take `CCCCCC(=O)Oc1ccc(/C(=C(\C)c2ccc(OC)cc2)c2ccc(OCCN3CCCCC3)cc2)cc1`: the GI50 was 4.02 µM and the TGI is 15.8 µM. For `COCC(=O)OC1CCn2c1nc1c2C(=O)C(C)=C(NC(C)=O)C1=O` (configuration not stated), in that order: 0.27 µM and 0.894 µM.

For the molecule `CCCSc1cc(Cl)nc(N)n1`, the GI50 is 85.8 µM and the TGI was above 100 µM. On to `Cc1sc(C)c(-c2ccc(CO)o2)c1-c1ccc(CO)o1`, for which the GI50 is 0.0178 µM and the TGI came out at 0.0501 µM. For `CN(C)CCCNc1c2ccc(Cl)cc2nc2c1oc1ccccc12`, the GI50 was 3.32 µM and the TGI worked out at 14 µM. For `NCCN1CCN(c2nccc(-c3ccc4ccccc4c3)n2)CC1`, in that order: 1.77 µM and 3.42 µM. For `Oc1ccc(Cc2ccccc2)c2cccnc12`, in that order: 1.92 µM and 5.51 µM. As for `CCCCCCNc1nc(NCCCCCC)c2[nH]c(NCCCCCC)nc2n1`, the GI50 is 1.17 µM and the TGI turned out to be 5.46 µM. For `Cc1ncc(NC(=O)c2ccc(CN3CCN(C)CC3)c(C(F)(F)F)c2)cc1Nc1nccc(-c2cccnc2)n1`, in that order: 14.6 µM and 29.4 µM. For `Nc1nc(Nc2ccc(OCc3cccc(F)c3)cc2)c2c(n1)[nH]c1ccc(O)cc12`, in that order: 1.98 µM and 5.36 µM. For `CN(C)c1nc(-c2cccs2)n2nc(-c3ccc(Cl)cc3)cc2n1`, in that order: 3.1 µM and above 100 µM.

Consider `O=C1c2c(c3c4ccc(Br)cc4oc3c3[nH]c4ccccc4c23)C(=O)N1O`, for which the GI50 is 2.38 µM and the TGI was determined as 8.36 µM.

As for `CS(=O)(=O)Nc1ccc(-c2ccc3c(NC(=O)C4CC4)n[nH]c3c2)cc1`, the GI50 was 7.2 µM and the TGI was above 23.7 µM.

With `Cc1noc(C)c1-c1ccc2[nH]c(=O)n3c2c1OC[C@@H]3c1ccccn1`, the GI50 was 0.719 µM and the TGI was above 91.3 µM. For `CC(=O)Nc1cc(F)cc(-c2ccc3[nH]cc(-c4ccccc4)c3n2)c1`, in that order: 2.09 µM and 6.4 µM. Taken in the same sequence, the figures for `CC(C)(C)OC(=O)c1ccc(NCc2cc(O)ccc2O)cc1` were 1.51 µM and 3.45 µM. `CN1CCN(Cc2ccc(NC(=O)c3ccc(C(C)(C)C)c(C#Cc4cnc5cccnn45)c3)cc2C(F)(F)F)CC1`: the GI50 is 1.98 µM and the TGI was determined as 3.77 µM. For `COc1ccc(/C=N/Nc2nc3ccccc3c(=O)n2-c2ccccc2)c(OCc2ccccc2)c1`, in that order: above 100 µM and above 100 µM. `CCN(CCO)CCNc1ccc(C)c2sc3cc(Cl)ccc3c(=O)c12`: the GI50 is 1.29 µM and the TGI was 2.78 µM. Turning to `COc1ccc(NC2=C(Br)C(=O)C(C)=C(C)C2=O)cc1`, the GI50 was 1.56 µM and the TGI amounted to 3.16 µM. On to `N#Cc1c(-c2ccccc2)nc2c(c(-c3ccccc3)nn2-c2ccccc2)c1-c1ccc(O)cc1`, for which the GI50 is 2.41 µM and the TGI amounted to 5.57 µM. Taken in the same sequence, the figures for `O=C(Nc1cc(-c2ccccc2)[nH]n1)c1ccc(Cl)cc1` were above 100 µM and above 100 µM. For `C=C1C(=O)O[C@H]2[C@H]1CC/C(COC(=O)c1cc3cc(OC)ccc3[nH]1)=C\CC[C@@]1(C)O[C@@H]21`, in that order: 1.13 µM and 2.85 µM. For `CCCS(=O)(=O)c1nc(NC2CC2)cc(-c2ccc3c(ccn3C3CC(C)(C)NC(C)(C)C3)c2)n1`, in that order: 1.75 µM and 3.61 µM. Consider `O=C(N/N=C/c1ccc(Cl)cc1Cl)c1ccccc1Nc1cccc(C(F)(F)F)c1`, for which the GI50 was 2.88 µM and the TGI stood at 12 µM. For `O=P(O)(O)C(O)(Cn1ccnc1)P(=O)(O)O`, the GI50 is above 87.3 µM and the TGI is above 100 µM. As for `CC1=C(C)C(=O)O[C@@H]([C@](C)(O)[C@]2(O)CC[C@@]3(O)[C@@H]4C[C@H]5O[C@]56CC=CC(=O)[C@]6(C)[C@H]4CC[C@]23C)C1`, the GI50 is 0.119 µM and the TGI amounted to 0.725 µM. Take `CCn1c(-c2nonc2N)nc2ccc(F)cc21`: the GI50 was above 25 µM and the TGI was above 25 µM.

As to `C=CC(=O)N1CCN(c2ncnc3c(F)c(-c4c(O)cccc4F)c(Cl)cc23)CC1`, the GI50 was 10.2 µM and the TGI stood at 31.1 µM. On to `CNc1nc(NC2CCCC2)nc(Sc2ccc(OC)cc2)n1`, for which the GI50 was above 10 µM and the TGI was above 10 µM.
